Data reported in ChEMBL document CHEMBL1201862, “PubChem BioAssay data set” (2004).
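48-hour exposure; five concentrations; linearly interpolated endpoints. GI50 marks 50% less growth.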 Calls of active or inactive are those of the source. Rule as the data show it: active = GI50 up to about 1.1 µM and inactive = higher.

Columns and labels:
Experiment in all cases: NCI tumour cell line growth inhibition, 48 h
[1] = system: SNB-19
[2] = system: M14
[3] = system: NCI-H522
[4] = system: UACC-62
[5] = system: IGROV-1
[6] = system: HT-29
[7] = system: T47D
[8] = system: CCRF-CEM
[9] = system: MDA-N
[10] = system: SF-268
[11] = system: SF-539
[12] = system: KM12
[13] = system: SK-MEL-5
[14] = system: UACC-257
[15] = system: OVCAR-5
[16] = system: SF-295
[17] = system: SNB-75
[18] = system: RXF 393
[19] = system: TK-10
[20] = system: MDA-MB-231

SMILES	GI50 [1]	GI50 [2]	GI50 [3]	GI50 [4]	GI50 [5]	GI50 [6]	GI50 [7]	GI50 [8]	GI50 [9]	GI50 [10]	GI50 [11]	GI50 [12]	GI50 [13]	GI50 [14]	GI50 [15]	GI50 [16]	GI50 [17]	GI50 [18]	GI50 [19]	GI50 [20]
O=C(Nc1ccc(Cl)cc1)Oc1ccc(C(=S)Nc2ccc(Br)cc2)cc1	34.4 µM (inactive)	3.43 µM (inactive)	10.4 µM (inactive)	1.63 µM (inactive)	2.05 µM (inactive)	2.19 µM (inactive)	10.5 µM (inactive)	3.04 µM (inactive)	16.7 µM (inactive)	30.5 µM (inactive)	15.5 µM (inactive)	2.55 µM (inactive)	6.1 µM (inactive)	15.5 µM (inactive)	4.05 µM (inactive)	0.438 µM (active)	–	–	–	–
COc1ccc(/C=C2\OC(=O)C(Cl)=C2c2ccc(OC)c(Cl)c2)cc1	34.1 µM (inactive)	25.4 µM (inactive)	25.3 µM (inactive)	26.5 µM (inactive)	32 µM (inactive)	43.2 µM (inactive)	32.1 µM (inactive)	29.2 µM (inactive)	17.7 µM (inactive)	17.3 µM (inactive)	15.2 µM (inactive)	28.7 µM (inactive)	17.3 µM (inactive)	34.7 µM (inactive)	24.6 µM (inactive)	25.5 µM (inactive)	19.7 µM (inactive)	12 µM (inactive)	21.7 µM (inactive)	–
O=c1[nH]nc(-c2cccc(Br)c2)[nH]1	> 100 µM (inactive)	> 100 µM (inactive)	> 100 µM (inactive)	> 100 µM (inactive)	> 100 µM (inactive)	> 100 µM (inactive)	> 100 µM (inactive)	> 100 µM (inactive)	> 100 µM (inactive)	> 100 µM (inactive)	> 100 µM (inactive)	> 100 µM (inactive)	> 100 µM (inactive)	> 100 µM (inactive)	> 100 µM (inactive)	> 100 µM (inactive)	43.3 µM (inactive)	> 100 µM (inactive)	> 100 µM (inactive)	–
CC(C)CCC[C@@H](C)C1CCC2[C@@H]3CCC4CC(CCC=C(c5cc(Cl)c(OC(=O)c6ccccc6)c(C(=O)O)c5)c5cc(Cl)c(OC(=O)c6ccccc6)c(C(=O)O)c5)CC[C@]4(C)C3CC[C@@]21C (stereo partly drawn)	> 100 µM (inactive)	15.8 µM (inactive)	> 100 µM (inactive)	> 100 µM (inactive)	34.8 µM (inactive)	> 100 µM (inactive)	–	> 100 µM (inactive)	> 100 µM (inactive)	–	> 100 µM (inactive)	> 100 µM (inactive)	28.8 µM (inactive)	58.2 µM (inactive)	> 100 µM (inactive)	–	> 100 µM (inactive)	> 100 µM (inactive)	52.2 µM (inactive)	12.6 µM (inactive)
COC(=O)c1ccccc1CC1Cc2ccc3c(c2C1=O)CCCC3 (stereo not drawn)	87.7 µM (inactive)	49 µM (inactive)	22.6 µM (inactive)	57.1 µM (inactive)	> 100 µM (inactive)	20.4 µM (inactive)	13.8 µM (inactive)	23.8 µM (inactive)	35.8 µM (inactive)	75.5 µM (inactive)	62.1 µM (inactive)	46.2 µM (inactive)	15.5 µM (inactive)	29.5 µM (inactive)	> 100 µM (inactive)	32 µM (inactive)	40.4 µM (inactive)	–	51.4 µM (inactive)	29.7 µM (inactive)
COc1c(C)c(C/C=C(\C)CCCCO[Si](C(C)C)(C(C)C)C(C)C)c(OC)c2ccccc12	> 100 µM (inactive)	> 100 µM (inactive)	> 100 µM (inactive)	> 100 µM (inactive)	> 100 µM (inactive)	> 100 µM (inactive)	–	49 µM (inactive)	> 100 µM (inactive)	> 100 µM (inactive)	> 100 µM (inactive)	> 100 µM (inactive)	> 100 µM (inactive)	> 100 µM (inactive)	> 100 µM (inactive)	> 100 µM (inactive)	> 100 µM (inactive)	> 100 µM (inactive)	> 100 µM (inactive)	> 100 µM (inactive)
CN(C)CC1CC/C(=C\c2ccc3c(c2)OCO3)C1=O (stereo not drawn)	16.2 µM (inactive)	7.4 µM (inactive)	3.89 µM (inactive)	16.7 µM (inactive)	9.75 µM (inactive)	14.5 µM (inactive)	–	2.79 µM (inactive)	4.42 µM (inactive)	11.2 µM (inactive)	16.3 µM (inactive)	6.79 µM (inactive)	14.2 µM (inactive)	8.97 µM (inactive)	18 µM (inactive)	23.1 µM (inactive)	5.53 µM (inactive)	15.7 µM (inactive)	11.1 µM (inactive)	2.38 µM (inactive)
